Data taken from patent US9193731B2, “Antimicrobial compounds and methods of making and using the same” (Melinta Therapeutics, Inc., priority 2009, dated 2015).

Test system: Escherichia coli strain ATCC25922
Experiment: standard microdilution assay to determine minimum inhibitory concentrations (MICs)
Assay type: cell-based
Details: Escherichia coli strain ATCC25922, microdilution
Outline: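 E. coli strain ATCC25922 tested per CLSI microdilution methodology (about 100 microliters per well) to find minimum inhibitory concentrations. Activity scored categorically at a 16 micrograms/ml threshold.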

| Structure (SMILES) | E. coli ATCC25922 MIC |
| --- | --- |
| CCn1cc(CCCN(C2CCNCC2)S(=O)(=O)c2ccc(-c3cc4cn(-c5ccc(CNCCCNC(=N)N)cc5)c(=O)nc4[nH]3)cc2)cn1 [Compound 837] | + (a “+” indicates that the compound has an MIC value of 16 micrograms/ml or less) |
| N=C(N)NCCCNCc1ccc(-n2cc3cc(-c4cc(CCCCN)cc(S(N)(=O)=O)c4)[nH]c3nc2=O)cc1 [Compound 2092a] | + (a “+” indicates that the compound has an MIC value of 16 micrograms/ml or less) |
| CC(CN)CN1CCC(c2cc3cn(-c4ccc(CNCCCNC(=N)N)cc4)c(=O)nc3[nH]2)C1 (stereo not drawn) [Compound 2038a] | + (a “+” indicates that the compound has an MIC value of 16 micrograms/ml or less) |
| N=C(N)NCCCNCc1ccc(-c2cn3cc(-c4ccc(C(=O)N5CCN(CCF)CC5)cc4)[nH]c3nc2=O)cc1 [Compound 826] | − (a “−” indicates that the compound has an MIC value greater than 16 micrograms/ml) |
| N=C(N)NCCCCOc1ccc(-c2cn3cc(-c4ccc(C(=O)NC5CCN(C(=N)N)CC5)cc4)[nH]c3nc2=O)cc1 [Compound 848] | + (a “+” indicates that the compound has an MIC value of 16 micrograms/ml or less) |
| N=C(N)NCCCNCc1ccc(-n2cc3cc(-c4cc(C(=O)N5Cc6ccccc6C5)cc(N5CCNCC5)c4)[nH]c3nc2=O)cc1 [Compound 981] | + (a “+” indicates that the compound has an MIC value of 16 micrograms/ml or less) |
| N=C(N)NCCCNCc1ccc(-n2cc3cc(-c4cc(F)cc(CCCCN)c4)[nH]c3nc2=O)cc1 [Compound 2085a] | + (a “+” indicates that the compound has an MIC value of 16 micrograms/ml or less) |
| N=C(N)NCCCNCc1ccc(-n2cc3cc(-c4cc(OCC(F)CN)cc(OC(F)(F)F)c4)[nH]c3nc2=O)cc1 (stereo not drawn) [Compound 1463] | + (a “+” indicates that the compound has an MIC value of 16 micrograms/ml or less) |
| N=C(N)NCCCNCc1ccc(-n2cc3cc(-c4cc(Br)cc(CCCCN)c4)[nH]c3nc2=O)cc1 [Compound 2079a] | + (a “+” indicates that the compound has an MIC value of 16 micrograms/ml or less) |
| Cc1cc(-n2cc3cc(-c4ccc(S(=O)(=O)NC5CCCNC5)cc4)[nH]c3nc2=O)ccc1CNCCCNC(=N)N (stereo not drawn) [Compound 1309] | + (a “+” indicates that the compound has an MIC value of 16 micrograms/ml or less) |
| N=C(N)NCCCNCc1ccc(-n2cc3cc(-c4cc(C(=O)NCC(F)(F)F)cc(N5CCNCC5)c4)[nH]c3nc2=O)cc1 [Compound 971] | + (a “+” indicates that the compound has an MIC value of 16 micrograms/ml or less) |
| CN(Cc1cccc(F)c1)C(=O)c1cc(-c2cc3cn(-c4ccc(CNCCCNC(=N)N)cc4)c(=O)nc3[nH]2)cc(N2CCNCC2)c1 [Compound 957] | + (a “+” indicates that the compound has an MIC value of 16 micrograms/ml or less) |
| N=C(N)NCCCNCc1ccc(-n2cc3cc(-c4cccc(S(=O)(=O)N(CCCC5CCCC5)C5CCNCC5)c4)[nH]c3nc2=O)cc1 [Compound 1047] | + (a “+” indicates that the compound has an MIC value of 16 micrograms/ml or less) |
| N=C(N)NCCCNCc1ccc(-n2cc3cc(-c4ccc(NC(=O)CNC5CCNCC5)cc4)[nH]c3nc2=O)cc1 [Compound 1290] | + (a “+” indicates that the compound has an MIC value of 16 micrograms/ml or less) |
| CC(CN)CN1CCC(c2cc3cn(-c4ccc(CNCCCN)cc4)c(=O)nc3[nH]2)C1 (stereo not drawn) [Compound 2041a] | + (a “+” indicates that the compound has an MIC value of 16 micrograms/ml or less) |
| CN(C)Cc1ccc(-n2cc3cc(-c4ccc(S(=O)(=O)N(CC5COc6ccccc6O5)C5CCNCC5)cc4)[nH]c3nc2=O)cc1 (stereo not drawn) [Compound 999] | − (a “−” indicates that the compound has an MIC value greater than 16 micrograms/ml) |
| CN(C)Cc1ccc(-n2cc3cc(-c4ccc(S(=O)(=O)N(CC5CC5)C5CCNCC5)cc4)[nH]c3nc2=O)cc1 [Compound 1001] | − (a “−” indicates that the compound has an MIC value greater than 16 micrograms/ml) |
| N=C(N)NCCCNC(=O)c1ccc(-n2cc3cc(-c4cccc(CCCCN)c4)[nH]c3nc2=O)cc1 [Compound 1433] | + (a “+” indicates that the compound has an MIC value of 16 micrograms/ml or less) |
| N=C(N)NCCCNCc1ccc(-n2cc3cc(-c4cc(OCC(F)CN)cc(-c5ccc([N+](=O)[O-])cc5)c4)[nH]c3nc2=O)cc1 (stereo not drawn) [Compound 2027a] | + (a “+” indicates that the compound has an MIC value of 16 micrograms/ml or less) |
| N=C(N)NCCCNCc1ccc(-n2cc3cc(-c4ccc(S(=O)(=O)N(CC5(CO)CC5)C5CCNCC5)cc4)[nH]c3nc2=O)cc1 [Compound 958] | + (a “+” indicates that the compound has an MIC value of 16 micrograms/ml or less) |
| N=C(N)NCCCNCc1ccc(-n2cc3cc(-c4ccc(S(=O)(=O)N(CCCn5ccc(C(F)(F)F)n5)C5CCNCC5)cc4)[nH]c3nc2=O)cc1 [Compound 934] | + (a “+” indicates that the compound has an MIC value of 16 micrograms/ml or less) |
| NCCCNCc1ccc(-n2cc3cc(-c4cc(C(=O)N5CCN(CCO)CC5)cc(N5CCNCC5)c4)[nH]c3nc2=O)cc1 [Compound 860] | − (a “−” indicates that the compound has an MIC value greater than 16 micrograms/ml) |
| N=C(N)NCCCNC(=O)c1ccc(-n2cc3cc(-c4ccc(S(=O)(=O)N(CC5COc6ccccc6O5)C5CCNCC5)cc4)[nH]c3nc2=O)cc1 (stereo not drawn) [Compound 1010] | + (a “+” indicates that the compound has an MIC value of 16 micrograms/ml or less) |
| N#Cc1cc(CCCCN)cc(-c2cc3cn(-c4ccc(CNCCCNC(=N)N)cc4)c(=O)nc3[nH]2)c1 [Compound 2084a] | + (a “+” indicates that the compound has an MIC value of 16 micrograms/ml or less) |

Same assay, conditions: Escherichia coli, ATCC25922, Escherichia coli strain ATCC25922, microdilution; read-out: E. coli ATCC25922 MIC

| Structure (SMILES) | MIC |
| --- | --- |
| N=C(N)NCCCNCc1ccc(-c2cn3nc(-c4ccc(F)cc4)[nH]c3nc2=O)cc1 [Compound 663] | > 16 µg/mL |
| N=C(N)NCCCNCc1ccc(-n2cc3cc(-c4cccc(NCC(=O)N5CCNCC5)c4)[nH]c3nc2=O)cc1 [Compound 645] | < 16 µg/mL |
| NCCCNCc1ccc(-c2cn3cc(-c4ccc(C(=O)NC5CCNCC5)cc4)[nH]c3nc2=O)cc1 [Compound 648] | < 16 µg/mL |
| NCCCN(CCCN)Cc1ccc(-n2cc3cc(Cn4nnc5ccccc54)[nH]c3nc2=O)cc1 [Compound 182] | > 16 µg/mL |
| NCCCNCc1ccc(-n2cc3cc(-c4ccsc4)[nH]c3nc2=O)cc1 [Compound 612] | > 16 µg/mL |
| NCCCNCc1ccc(-n2cc3cc(-c4ccccc4OC(F)(F)F)[nH]c3nc2=O)cc1 [Compound 309] | > 16 µg/mL |
| O=c1nc2[nH]c(-c3ccc(S(=O)(=O)NC4CCNCC4)cc3F)cc2cn1-c1ccc(CNCCCF)c(F)c1 [Compound 279] | > 16 µg/mL |
| NCCCNCc1ccc(-n2cc3cc(CCC(=O)N4CC[C@H](F)C4)[nH]c3nc2=O)cc1 [Compound 298] | > 16 µg/mL |
| N=C(N)NCCCNCc1ccc(-c2cn3cc(-c4ccc(C(=O)N5CCC(C(N)=O)C5)cc4)[nH]c3nc2=O)cc1 (stereo not drawn) [Compound 692] | > 16 µg/mL |
| O=c1nc2[nH]c3ccccc3c2cn1C1CNC1 [Compound 591] | > 16 µg/mL |
| N=C(N)NCCCNCc1ccc(-c2cn3cc(-c4ccc(C5=CCN(C(=N)N)CC5)cc4)[nH]c3nc2=O)cc1 [Compound 650] | < 16 µg/mL |

The remaining lines, values ahead:

| MIC | Structure (SMILES) |
| --- | --- |
| < 16 µg/mL | NCCCNCc1ccc(-n2cc3cc(-c4cccc(N5CCNCC5)c4)[nH]c3nc2=O)cc1 [Compound 775] |
| > 16 µg/mL | CNCc1ccc(-n2cc3cc(-c4ccc(S(=O)(=O)N(CCCN5Cc6ccccc6C5)C5CCNCC5)cc4)[nH]c3nc2=O)cc1 [Compound 1054] |
| > 16 µg/mL | CS(=O)(=O)N1CCN(C(=O)c2ccc(-c3cn4cc(-c5ccc(CNCCCN)cc5)c(=O)nc4[nH]3)cc2)CC1 [Compound 701] |
| < 16 µg/mL | CN1CCN(C(=O)c2ccc(-c3cn4cc(-c5ccc(CNCCCNC(=N)N)cc5)c(=O)nc4[nH]3)cc2)CC1 [Compound 706] |
| > 16 µg/mL | NCc1ccc(-n2cc3cc(-c4ccc(S(=O)(=O)N(CCCN5CCc6ccccc65)C5CCNCC5)cc4)[nH]c3nc2=O)cc1 [Compound 1067] |
| > 16 µg/mL | NCc1ccc(-n2cc3cc(-c4cccc(S(=O)(=O)N(CCN5CCCC5)C5CCNCC5)c4)[nH]c3nc2=O)cc1 [Compound 1183] |
| > 16 µg/mL | NCC(O)Cn1cc2cc(-c3ccc(S(=O)(=O)NC4CCNCC4)cc3)[nH]c2nc1=O (stereo not drawn) [Compound 1149] |
| > 16 µg/mL | N=C(N)NCCCNCc1ccc(-c2cn3cc(C(=O)Nc4ccc(F)cc4)[nH]c3nc2=O)cc1 [Compound 965] |
| > 16 µg/mL | NCc1ccc(-n2cc3cc(-c4cccc(CCN5CCNCC5)c4)[nH]c3nc2=O)cc1 [Compound 1200] |
| < 16 µg/mL | N=C(N)NCCCNCc1ccc(-n2cc3cc(-c4ccc(S(=O)(=O)N(CC5CC5)C5CCNCC5)cc4)[nH]c3nc2=O)cc1 [Compound 728] |
| > 16 µg/mL | NCCCNCc1ccc(-n2cc3cc(-c4ccc(S(=O)(=O)N(CC5CCOCC5)C5CCCNC5)cc4)[nH]c3nc2=O)cc1 (stereo not drawn) [Compound 830] |
| > 16 µg/mL | NCc1ccc(-n2cc3cc(-c4cccc(S(=O)(=O)N(CCc5cccc([N+](=O)[O-])c5)C5CCNCC5)c4)[nH]c3nc2=O)cc1 [Compound 1184] |
| < 16 µg/mL | NCCCNCc1ccc(-n2cc3cc(CCN[C@H]4CCCNC4)[nH]c3nc2=O)cc1 [Compound 816] |
| < 16 µg/mL | N=C(N)NCCCNCc1ccc(-n2cc3cc(-c4cc(C(=O)N5CCN(c6ccc(F)cc6)CC5)cc(N5CCNCC5)c4)[nH]c3nc2=O)cc1 [Compound 755] |
| > 16 µg/mL | N=C(N)N[C@@H]1CCN(Cc2ccc(-n3cc4cc[nH]c4nc3=O)cc2)C1 [Compound 1140] |
| < 16 µg/mL | NCCCNCc1ccc(-c2cn3cc(-c4ccc(C(=O)N5CC6CC5CN6)cc4)[nH]c3nc2=O)cc1 (stereo not drawn) [Compound 742] |
| > 16 µg/mL | C=Cc1cc2cn(-c3ccc(C(=O)NCCCNC(=N)N)cc3)c(=O)nc2[nH]1 [Compound 1112] |
| < 16 µg/mL | N=C(N)NCCCNCc1ccc(-n2cc3cc(CCN[C@H]4CCCNC4)[nH]c3nc2=O)cc1 [Compound 817] |
| > 16 µg/mL | N=C(N)NCCCCCn1cc2cc(-c3ccc(S(=O)(=O)NC4CCNCC4)cc3)oc2nc1=O [Compound 912] |
